Data on 2 molecules can be found in US20160060324A1, “Methods and Compositions for Treating Bleeding Disorders” (THE SCRIPPS RESEARCH INSTITUTE, priority 2013, published 2016).

The target of one assay is T1, murine CD22 (Mus musculus, UniProt P35329).
T1 sequence (P35329 22-868): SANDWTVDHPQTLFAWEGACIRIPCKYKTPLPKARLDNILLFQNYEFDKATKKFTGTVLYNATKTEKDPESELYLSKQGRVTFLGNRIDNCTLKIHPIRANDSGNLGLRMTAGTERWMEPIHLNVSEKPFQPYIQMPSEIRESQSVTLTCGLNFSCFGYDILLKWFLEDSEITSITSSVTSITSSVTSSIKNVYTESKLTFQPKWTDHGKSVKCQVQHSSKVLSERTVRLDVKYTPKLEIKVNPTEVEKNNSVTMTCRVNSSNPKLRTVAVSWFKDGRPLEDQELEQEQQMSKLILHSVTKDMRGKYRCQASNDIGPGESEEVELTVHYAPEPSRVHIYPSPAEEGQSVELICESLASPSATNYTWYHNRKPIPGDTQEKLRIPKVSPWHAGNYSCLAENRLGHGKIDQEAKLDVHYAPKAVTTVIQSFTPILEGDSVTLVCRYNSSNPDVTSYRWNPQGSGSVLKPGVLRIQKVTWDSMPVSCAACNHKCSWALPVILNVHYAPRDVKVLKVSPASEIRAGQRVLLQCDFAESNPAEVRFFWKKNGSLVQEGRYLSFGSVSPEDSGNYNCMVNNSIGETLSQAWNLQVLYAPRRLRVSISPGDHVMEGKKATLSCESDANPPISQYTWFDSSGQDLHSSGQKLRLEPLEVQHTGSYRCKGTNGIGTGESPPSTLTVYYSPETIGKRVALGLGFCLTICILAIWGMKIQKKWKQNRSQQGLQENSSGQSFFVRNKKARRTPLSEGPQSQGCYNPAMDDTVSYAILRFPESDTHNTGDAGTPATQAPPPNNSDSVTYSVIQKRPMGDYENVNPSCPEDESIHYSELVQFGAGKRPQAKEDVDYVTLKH
Conditions: higher affinity than natural ligand; cited from earlier work.

Another assay deals with C57BL/6J mice. Description: Tolerance induction to T-dependent antigen HEL in mice (anti-HEL titers by ELISA). The class given is in vivo, mouse. Conditions: for antibody suppression with varying amounts of ligand on HEL STALs: end of 44-day experiment, two challenges with immunogenic liposomes on days 15 and 30. The method, then:
Whole blood (50 μL) was collected from mice via a retro-orbital bleed to obtain the serum after centrifugation (17,000 g, 1 min). Serum was aliquoted and stored at −20° C. Liposomes were delivered via the lateral tail vein in a volume of 200 μL. For studies involving a challenge with soluble (non-liposomal) antigen, mice were injected with 200 μg of HEL dissolved in HBSS and delivered intraperitoneally.
Maxisorp plates were coated (0/N, 4° C.) with the relevant protein (50 μL/well, 10 μg/mL) in PBS. NP4-7-BSA in PBS (Biosearch Technologies) was used to look for anti-NP antibodies. The following day, plates were washed twice in TBS-T (0.1% Tween 20) and blocked (1 hr, RT) with TBS-T containing 1% BSA. Serum was initially diluted between 20-10,000-fold and diluted in 2-3 fold serial dilutions eight times on the ELISA plate. Plates were incubated (1 hr, 37° C.) with serum (50 μL/well), washed four times, and incubated (1 hr, 37° C.) with the appropriate HRP-conjugated secondary antibodies (1:2000, Santa Cruz Biotechnologies). Following five washes, plates were developed (RT, 15 min) in 75 μL/well of TMB substrate (Thermo Fisher) and quenched with 75 μL/well of 2N H2SO4. Absorbance was measured at 450 nm and the endpoint titer was calculated as the dilution of serum that produced an absorbance 2-fold above background.
All liposomes were composed of a 60:35:5 molar ratio of distearoyl phosphatidylcholine (DSPC; Avanti Polar Lipids), cholesterol (Sigma), and pegylated lipids. The total mol % of pegylated lipids was always kept at 5%; made up of the appropriate combination of polyethyleneglycol(PEG2000)-distearoyl phosphoethanolamine (PEG-DSPE; Avanti Polar Lipids), ^BPANeuGc-PEG2000-DSPE, ^BPCNeuAc-PEG2000-DSPE, NP-PEG2000-DSPE or Protein-PEG2000-DSPE. […] The diameter of the liposomes were measured on a zetasizer (Malvern) and were consistently in the range of 100-130±30 nm. […]

A further assay addresses T2, Siglec-G (Mus musculus, UniProt Q80ZE3).
T2 sequence (Q80ZE3 18-688): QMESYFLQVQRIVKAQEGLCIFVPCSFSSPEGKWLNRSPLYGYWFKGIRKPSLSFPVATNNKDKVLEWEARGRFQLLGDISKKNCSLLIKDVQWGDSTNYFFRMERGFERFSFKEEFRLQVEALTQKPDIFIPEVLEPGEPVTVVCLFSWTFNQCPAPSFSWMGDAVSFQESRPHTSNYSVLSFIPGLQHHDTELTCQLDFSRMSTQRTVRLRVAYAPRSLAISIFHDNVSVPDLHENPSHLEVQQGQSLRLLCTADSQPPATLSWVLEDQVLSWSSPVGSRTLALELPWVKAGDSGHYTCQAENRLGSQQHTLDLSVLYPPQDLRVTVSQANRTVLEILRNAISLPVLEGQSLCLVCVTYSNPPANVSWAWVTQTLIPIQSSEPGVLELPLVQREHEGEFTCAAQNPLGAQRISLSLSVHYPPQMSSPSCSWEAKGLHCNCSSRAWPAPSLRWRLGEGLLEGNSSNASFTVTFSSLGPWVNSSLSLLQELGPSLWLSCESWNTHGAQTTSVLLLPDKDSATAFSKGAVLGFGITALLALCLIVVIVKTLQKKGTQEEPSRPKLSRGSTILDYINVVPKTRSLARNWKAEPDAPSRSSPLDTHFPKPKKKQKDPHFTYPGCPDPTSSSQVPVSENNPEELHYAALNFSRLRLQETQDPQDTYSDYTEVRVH
Conditions: cited from earlier work.

As for “9-N-biphenylacetyl-NeuGcα2-6Galβ1-4GlcNAc [^BPANeuGc]”, the “affinity for murine CD22 relative to its natural ligand (NeuGcα2-6Galβ1-4GlcNAc)” value at murine CD22 is on record as 200 fold. Moreover, the “difference in EC50 between the two ligands (^BPANeuGc vs NeuGc) on HEL STALs” value in the assay with C57BL/6J mice (antibody suppression titration, FIG. 1E) is “two orders of magnitude difference”. In addition, the “antibody suppression with varying amounts of ligand on HEL STALs” value with C57BL/6J mice is reported as “dose-dependent effect on antibody suppression”. Also, the “cross-reactivity with Siglec-G” value on Siglec-G is given as “only a small degree of cross-reactivity”.

Consider `CC(=O)NC1C(O)OC(CO)C(OC2OC(COC3(C(=O)O)CC(O)C(NC(=O)CO)C(C(O)C(O)CO)O3)C(O)C(O)C2O)C1O` (centres unmarked) [NeuGc, NeuGcα2-6Galβ1-4GlcNAc], for which the “antibody suppression with varying amounts of ligand on HEL STALs” value with C57BL/6J mice is on record as “dose-dependent effect on antibody suppression”.
